Results as given in paper PMC4320052, “High Level Expression of a Novel Family 3 Neutral β-Xylosidase from Humicola insolens Y1 with High Tolerance to D-Xylose” (PLoS ONE, 2015).
Each block holds one molecule with its values, some of them ahead of it.

Legend:
Xyl3A = molecular target: T1, Xyl3A (Mycothermus thermophilus, UniProt A0A0C5AKM5); test: pNPX hydrolysis at […] nm, Dixon plot; type: biochemical; details: pNPX 0.75 and 1 mM, xylose 5-50 mM, pH 6.0, 60°C; competitive (general statement for β-xylosidases); Methods define Ki as xylose giving 50% inhibition
T1 construct: mature Xyl3A, signal peptide (residues 1-19) removed; precursor 777 residues; pPIC9 alpha-factor fusion, secreted from Pichia pastoris GS115
T1 sequence (A0A0C5AKM5 20-777): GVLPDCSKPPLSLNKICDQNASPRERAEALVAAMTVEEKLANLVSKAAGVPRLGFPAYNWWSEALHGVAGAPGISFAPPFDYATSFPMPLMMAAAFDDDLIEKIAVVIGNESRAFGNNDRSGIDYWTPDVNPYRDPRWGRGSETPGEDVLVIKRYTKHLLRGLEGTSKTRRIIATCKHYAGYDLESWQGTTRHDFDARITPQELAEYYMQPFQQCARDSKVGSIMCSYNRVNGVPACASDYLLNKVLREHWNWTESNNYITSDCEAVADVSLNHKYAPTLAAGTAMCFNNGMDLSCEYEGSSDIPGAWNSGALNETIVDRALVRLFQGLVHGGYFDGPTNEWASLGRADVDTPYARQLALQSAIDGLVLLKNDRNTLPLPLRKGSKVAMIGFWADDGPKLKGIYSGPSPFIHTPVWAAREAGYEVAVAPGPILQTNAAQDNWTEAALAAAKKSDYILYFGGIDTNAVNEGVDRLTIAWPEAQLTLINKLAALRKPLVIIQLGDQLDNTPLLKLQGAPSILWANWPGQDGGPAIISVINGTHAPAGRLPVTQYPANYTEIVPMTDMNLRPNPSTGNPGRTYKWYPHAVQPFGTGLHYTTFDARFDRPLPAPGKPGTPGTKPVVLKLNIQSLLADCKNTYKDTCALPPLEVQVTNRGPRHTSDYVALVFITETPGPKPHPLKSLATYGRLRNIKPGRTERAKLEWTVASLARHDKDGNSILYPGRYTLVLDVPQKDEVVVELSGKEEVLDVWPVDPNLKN

purified protein = substrate: O=[N+]([O-])c1ccc(O[C@@H]2OC[C@@H](O)[C@H](O)[C@H]2O)cc1; test: purified protein; type: biochemical, Mycothermus thermophilus; details: pNPX 1-10 mM, 100 mM Na2HPO4-citric acid, pH 6.0, 60°C, 5 min

Ki (Xyl3A): 29 mM
Molecule: OC1OC[C@@H](O)[C@H](O)[C@H]1O (some centres unmarked) [xylose]

B1: Xyl3A (Mycothermus thermophilus) (protein)
chain: T1 sequence (A0A0C5AKM5 20-777)
notes: mature Xyl3A, signal peptide (residues 1-19) removed; precursor 777 residues; pPIC9 alpha-factor fusion, secreted from Pichia pastoris GS115
Km (purified protein): 2.51 mM
